{"source": "ChEMBL document CHEMBL1275520", "about": "“Metronidazole lacks antibacterial activity in guinea pigs infected with Mycobacterium tuberculosis” (Antimicrob Agents Chemother, 2008)", "key": {"[1]": {"test_system": "Mycobacterium tuberculosis", "assay": "Antibacterial activity against Mycobacterium tuberculosis infected in Hartley guinea pig spleen assessed as reduction in bacterial load at 30 mg/kg", "assay_type": "functional, organism-based", "design": "dose 30 mg/kg"}, "[2]": {"test_system": "Mycobacterium tuberculosis", "assay": "Antibacterial activity against Mycobacterium tuberculosis infected in Hartley guinea pig lung assessed as reduction in bacterial load at 30 mg/kg", "assay_type": "functional, organism-based", "design": "dose 30 mg/kg"}, "[3]": {"test_system": "Mycobacterium tuberculosis", "assay": "Antibacterial activity against Mycobacterium tuberculosis infected in Hartley guinea pig lung assessed as reduction in development of new secondary lesions at 30 mg/kg after 4 weeks by histological analysis relative to control", "assay_type": "functional, organism-based", "design": "dose 30 mg/kg"}, "[4]": {"test_system": "Mycobacterium tuberculosis", "assay": "Antibacterial activity against Mycobacterium tuberculosis infected in Hartley guinea pig lung assessed as reduction in bacteria induced progression of inflammation at 30 mg/kg after 4 weeks by histological analysis relative to control", "assay_type": "functional, organism-based", "design": "dose 30 mg/kg"}, "[5]": {"test_system": "Mycobacterium tuberculosis", "assay": "Antibacterial activity against Mycobacterium tuberculosis infected in Hartley guinea pig lung assessed as reduction in development of new secondary lesions at 100 mg/kg after 4 weeks by histological analysis relative to control", "assay_type": "functional, organism-based", "design": "dose 100 mg/kg"}, "[6]": {"test_system": "Mycobacterium tuberculosis", "assay": "Antibacterial activity against Mycobacterium tuberculosis infected in Hartley guinea pig lung assessed as reduction in bacteria induced progression of inflammation at 100 mg/kg after 4 weeks by histological analysis relative to control", "assay_type": "functional, organism-based", "design": "dose 100 mg/kg"}, "[7]": {"test_system": "Mycobacterium tuberculosis", "assay": "Antibacterial activity against Mycobacterium tuberculosis infected in Hartley guinea pig spleen assessed as reduction in bacterial load at 100 mg/kg", "assay_type": "functional, organism-based", "design": "dose 100 mg/kg"}, "[8]": {"assay": "Toxicity in Hartley guinea pig lung assessed as formation of TB lesions by histological analysis", "design": "species or system Cavia porcellus", "conditions": "in vivo"}, "[9]": {"test_system": "Mycobacterium tuberculosis", "assay": "Antibacterial activity against Mycobacterium tuberculosis infected in Hartley guinea pig lung assessed as reduction in bacterial load at 100 mg/kg", "assay_type": "functional, organism-based", "design": "dose 100 mg/kg"}}, "note": "Active and inactive are the calls of the source. The calls are words filed in the database; no cut-off is given here.", "data": [{"smiles": "NNC(=O)c1ccncc1", "values": [{"measurement": "Activity", "setting": "[1]", "value": "Active"}, {"measurement": "Activity", "setting": "[2]", "value": "Active"}, {"measurement": "Activity", "setting": "[3]", "value": "Active"}, {"measurement": "Activity", "setting": "[4]", "value": "Active"}]}, {"smiles": "Cc1ncc([N+](=O)[O-])n1CCO", "note": "[METRONIDAZOLE]", "values": [{"measurement": "Activity", "setting": "[5]", "value": "inactive"}, {"measurement": "Activity", "setting": "[6]", "value": "inactive"}, {"measurement": "Activity", "setting": "[7]", "value": "inactive"}, {"measurement": "Activity", "setting": "[8]", "value": "Toxic"}, {"measurement": "Activity", "setting": "[9]", "value": "inactive"}]}]}
